Literature values in US10918699B2, “Therapeutic treatment for neurotrophic keratopathy” (priority 2017, dated 2021).

Columns and labels:
[1] = test system: corneal epithelium wound healing; conditions: together with substance-P; several pre-clinical studies
[2] = test system: cultured sheets of corneal epithelial cells
corneal ulcers = conditions: systemic administration, humans, 1945 case series

| Substance | corneal epithelium wound healing [1] | cell migration and closure of artificial wounds [2] | healing of corneal ulcers (corneal ulcers) |
| --- | --- | --- | --- |
| Insulin-like growth factor-1 [IGF-1] | act synergistically with substance-P | – | – |
| insulin | – | promoted cell migration and closure of artificial wounds | improved healing |
